The experiment has as its target T1, human PTH1 receptor (Homo sapiens, UniProt Q03431).
T1 sequence (Q03431 27-593): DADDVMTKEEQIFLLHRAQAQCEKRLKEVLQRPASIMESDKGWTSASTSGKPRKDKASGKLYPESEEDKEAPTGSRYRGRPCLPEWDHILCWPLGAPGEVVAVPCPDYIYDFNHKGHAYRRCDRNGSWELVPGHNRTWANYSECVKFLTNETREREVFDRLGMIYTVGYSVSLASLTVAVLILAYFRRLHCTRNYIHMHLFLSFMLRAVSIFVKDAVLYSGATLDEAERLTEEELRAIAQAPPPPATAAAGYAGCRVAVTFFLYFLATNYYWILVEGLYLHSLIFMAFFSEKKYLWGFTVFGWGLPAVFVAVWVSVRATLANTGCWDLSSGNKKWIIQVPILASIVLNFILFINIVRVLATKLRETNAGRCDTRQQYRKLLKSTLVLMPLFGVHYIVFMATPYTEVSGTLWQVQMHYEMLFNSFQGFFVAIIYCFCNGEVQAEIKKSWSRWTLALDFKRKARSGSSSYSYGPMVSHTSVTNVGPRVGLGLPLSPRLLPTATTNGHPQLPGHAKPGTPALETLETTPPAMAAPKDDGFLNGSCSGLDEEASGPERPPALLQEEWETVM
Put plainly: In vitro cAMP signal activity in HKRK-B7 cells (LLC-PK1 cells overexpressing the human PTH1 receptor). It is filed as cell-based. The note with it: HKRK-B7 cells; compound at 1×10^−3 M; cAMP produced as percentage of that produced by hPTH(1-34) at 100 nM.
For the molecule `Cc1cc(N2C(=O)CC[C@H]2CO)ccc1/C=C/S(=O)(=O)N1CCC2(CC1)N=C(c1ccc(F)c(C(F)(F)F)c1)NC2=O` [Compound 621, 2-(4-fluoro-3-trifluoromethyl-phenyl)-8-{(E)-2-[4-((S)-2-hydroxymethyl-5-oxo-pyrrolidin-1-yl)-2-methyl-phenyl]-ethenesulfonyl}-1,3,8-triaza-spiro[4.5]dec-1-en-4-one], the “cAMP production activity (%)” value is listed as 80%.

Turning to `Cc1cc(N(C)C(N)=O)cc(C)c1CCS(=O)(=O)N1CCC2(CC1)N=C(CCCCCCCCCCC1(C)COC1)NC2=O` [Compound 1032, 1-[3,5-dimethyl-4-(2-{2-[10-(3-methyl-oxetan-3-yl)-decyl]-4-oxo-1,3,8-triaza-spiro[4.5]dec-1-ene-8-sulfonyl}-ethyl)-phenyl]-1-methyl-urea], the “cAMP production activity (%)” value was 88%.

`COc1ccccc1/C=C/S(=O)(=O)N1CCC2(CC1)N=C(C1CCCCC1)NC2=O` [Compound 181, 2-cyclohexyl-8-[(E)-2-(2-methoxy-phenyl)-ethenesulfonyl]-1,3,8-triaza-spiro[4.5]dec-1-en-4-one]: the “cAMP production activity (%)” value stood at 19%. With `Cc1cc(N(C)C(N)=O)cc(C)c1/C=C/S(=O)(=O)N1CCC2(CC1)N=C(c1cccc(SC(F)(F)F)c1)NC2=O` [Compound 1305, 1-(3,5-dimethyl-4-{(E)-2-[4-oxo-2-(3-trifluoromethylsulfanyl-phenyl)-1,3,8-triaza-spiro[4.5]dec-1-ene-8-sulfonyl]-vinyl}-phenyl)-1-methyl-urea] the figure was 138%; with `Cc1cc(C(=O)N2CCC[C@H]2CO)ccc1CCS(=O)(=O)N1CCC2(CC1)N=C(c1cccc(C(F)(F)F)c1)NC2=O` [Compound 356, 8-{2-[4-((S)-2-hydroxymethyl-pyrrolidine-1-carbonyl)-2-methyl-phenyl]-ethanesulfonyl}-2-(3-trifluoromethyl-phenyl)-1,3,8-triaza-spiro[4.5]dec-1-en-4-one], 78%.

`Cc1cc(C(=O)N(C)CCCO)cc(C)c1/C=C/S(=O)(=O)N1CCC2(CC1)N=C(c1cccc(C(F)(F)F)c1)NC2=O` [Compound 389, N-(3-hydroxy-propyl)-3,5,N-trimethyl-4-{(E)-2-[4-oxo-2-(3-trifluoromethyl-phenyl)-1,3,8-triaza-spiro[4.5]dec-1-ene-8-sulfonyl]-vinyl}-benzamide]: the “cAMP production activity (%)” value is 75%. On to `COc1cccc(OC)c1C1=NC2(CCN(S(=O)(=O)CCc3ccc(C(=O)N(C)C)cc3C)CC2)C(=O)N1` [Compound 79, 4-{2-[2-(2,6-dimethoxy-phenyl)-4-oxo-1,3,8-triaza-spiro[4.5]dec-1-ene-8-sulfonyl]-ethyl}-3,N,N-trimethyl-benzamide], for which the “cAMP production activity (%)” value amounted to 8.2%. For the molecule `CCCc1ccc(-c2cccc(C3=NC4(CCN(S(=O)(=O)CCc5c(C)cc(N(C)C(N)=O)cc5C)CC4)C(=O)N3)c2)cc1` [Compound 1152, 1-(3,5-Dimethyl-4-{2-[4-oxo-2-(4′-propyl-biphenyl-3-yl)-1,3,8-triaza-spiro[4.5]dec-1-ene-8-sulfonyl]-ethyl}-phenyl)-1-methyl-urea], the “cAMP production activity (%)” value was determined as 0.8%. For `Cc1cc(S(=O)(=O)NC2CCC(O)CC2)ccc1/C=C/S(=O)(=O)N1CCC2(CC1)N=C(c1cccc(C(F)(F)F)c1)NC2=O` (stereo not drawn) [Compound 592, N-(4-hydroxy-cyclohexyl)-3-methyl-4-{(E)-2-[4-oxo-2-(3-trifluoromethyl-phenyl)-1,3,8-triaza-spiro[4.5]dec-1-ene-8-sulfonyl]-vinyl}-benzenesulfonamide], the “cAMP production activity (%)” value is listed as 87%. For `Cc1cc(C(=O)N2CCC(C)(O)CC2)cc(C)c1/C=C/S(=O)(=O)N1CCC2(CC1)N=C(c1ccc(OCC(F)(F)F)c(C(F)(F)F)c1)NC2=O` [Compound 1200, 8-{(E)-2-[4-(4-hydroxy-4-methyl-piperidine-1-carbonyl)-2,6-dimethyl-phenyl]-ethenesulfonyl}-2-[4-(2,2,2-trifluoro-ethoxy)-3-trifluoromethyl-phenyl]-1,3,8-triaza-spiro[4.5]dec-1-en-4-one], the “cAMP production activity (%)” value is 73%. For `Cc1cc(C(=O)N2CC(O)C2)cc(C)c1/C=C/S(=O)(=O)N1CCC2(CC1)N=C(c1ccc(F)c(OC(F)(F)F)c1)NC2=O` [Compound 1102, 2-(4-Fluoro-3-trifluoromethoxy-phenyl)-8-{(E)-2-[4-(3-hydroxy-azetidine-1-carbonyl)-2,6-dimethyl-phenyl]-ethenesulfonyl}-1,3,8-triaza-spiro[4.5]dec-1-en-4-one], the “cAMP production activity (%)” value came to 10%.

Take `Cc1cc(N2C(=O)CNC2=O)ccc1CCS(=O)(=O)N1CCC2(CC1)N=C([C@H]1CCC[C@@H](C)C1)NC2=O` [Compound 950, 3-(3-methyl-4-{2-[2-((1S,3R)-3-methyl-cyclohexyl)-4-oxo-1,3,8-triaza-spiro[4.5]dec-1-ene-8-sulfonyl]-ethyl}-phenyl)-imidazolidine-2,4-dione]: the “cAMP production activity (%)” value worked out at 59%. Under `Cc1cc(C(=O)N2CCC(C)(O)CC2)cc(C)c1/C=C/S(=O)(=O)N1CCC2(CC1)N=C(c1ccc(C(F)(F)F)c(Cl)c1)NC2=O` [Compound 1188, 2-(3-chloro-4-trifluoromethyl-phenyl)-8-{(E)-2-[4-(4-hydroxy-4-methyl-piperidine-1-carbonyl)-2,6-dimethyl-phenyl]-ethenesulfonyl}-1,3,8-triaza-spiro[4.5]dec-1-en-4-one] stands 99%. Under `Cc1cc(C(=O)N2CCC(O)(CF)CC2)cc(C)c1CCS(=O)(=O)N1CCC2(CC1)N=C(c1ccc(OC(F)(F)F)cc1)NC2=O` [Compound 1276, 8-{2-[4-(4-fluoromethyl-4-hydroxy-piperidine-1-carbonyl)-2,6-dimethyl-phenyl]-ethanesulfonyl}-2-(4-trifluoromethoxy-phenyl)-1,3,8-triaza-spiro[4.5]dec-1-en-4-one] stands 140%; under `Cc1cc(N(C)C(N)=O)cc(C)c1CCS(=O)(=O)N1CCC2(CC1)N=C(c1cccc(-c3ccccc3-c3ccccc3)c1)NC2=O` [Compound 1087, 1-{3,5-Dimethyl-4-[2-(4-oxo-2-[1,1′;2′,1″]terphenyl-3-yl-1,3,8-triaza-spiro[4.5]dec-1-ene-8-sulfonyl)-ethyl]-phenyl}-1-methyl-urea], 97%; under `Cc1cc(N(C)C(N)=O)cc(C)c1CCS(=O)(=O)N1CCC2(CC1)N=C(CCCCCCCS(C)(=O)=O)NC2=O` [Compound 1357, 1-(4-{2-[2-(7-methanesulfonyl-heptyl)-4-oxo-1,3,8-triaza-spiro[4.5]dec-1-ene-8-sulfonyl]-ethyl}-3,5-dimethyl-phenyl)-1-methyl-urea], 13%. With `Cc1cc(N2C(=O)CNC2=O)ccc1CCS(=O)(=O)N1CCC2(CC1)N=C(C1CCC(C)(C)CC1)NC2=O` [Compound 951, 3-(4-{2-[2-(4,4-dimethyl-cyclohexyl)-4-oxo-1,3,8-triaza-spiro[4.5]dec-1-ene-8-sulfonyl]-ethyl}-3-methyl-phenyl)-imidazolidine-2,4-dione] the figure was 93%; with `CN1CCN(C(=O)Nc2ccc(/C=C/S(=O)(=O)N3CCC4(CC3)N=C(C3CCCCC3)NC4=O)c(C(F)(F)F)c2)CC1` [Compound 485, 4-methyl-piperazine-1-carboxylic acid {4-[(E)-2-(2-cyclohexyl-4-oxo-1,3,8-triaza-spiro[4.5]dec-1-ene-8-sulfonyl)-vinyl]-3-trifluoromethyl-phenyl}-amide], 7.7%.

These data come from patent US9169254B2, “Spiroimidazolone derivative” (Chugai Seiyaku Kabushiki Kaisha, priority 2009, dated 2015).
